{"source": "patent US9918472B2", "about": "“Animal repellent” (SCENT SCIENCE INTERNATIONAL INC., priority 2010, dated 2018)", "key": {"[1]": {"system": "wild-type mice (O-MACS-Cre)", "assay": "Freezing test, quantification of fear reaction due to odor", "assay_type": "in vivo, mouse", "details": "for Freezing time (%): mice, n=8, 20 min observation, value ± standard error, t-test vs 1,3-dioxolane; for freezing-inducing effect at too high a concentration: Example 3, FIG. 4, dilution series up to 1.082 mmol", "protocol": "About 5- to 7-month-old littermate wild-type mice (O-MACS-Cre) were placed in the mouse cages set in a draft (one mouse per cage) to perform habituation for 20 min. Similarly, 20 min habituation was performed the next day. On day 3, odor pods containing odorant molecules were placed in the cages in the draft, and the mice were placed in the cages with odor pods. The behaviors of the mice from day 1 to day 3 were video-recorded and the freezing time was analyzed by FreezeFrame system manufactured by NeuroScience Inc. The time during which the mouse was motionless for 2 seconds or longer was measured as a freezing time, and the time of freezing during the 20 min observation time was shown in %. The freezing time on day 2 was shown as control without odor in the data. As the mice used for experiment, male mice were used to avoid abnormality in the olfactory sense due to the sexual cycle. […] The odor pod refers to an apparatus containing filter paper impregnated with odorant and placed in a plastic petri dish with a lid having a hole. In this experiment, 2 MB (2-methylbutyric acid) 45 μL (270.6 μmol) or TMT 35 μL (270.6 μmol) was used as the odorant molecule.\nUsing various compounds, the freezing test shown in Experimental Example 1 was performed. […] For the experiment, 270.6 μmol of odorant molecules were used. The abbreviations and the formal names of the odorant molecules used are as follows.\nThe influence of the concentration of the odorant molecule on the effect of inducing a freezing behavior was analyzed. […] The freezing behavior was analyzed by a method similar to that in Example 1. The amount of the odorant molecules used of the both compounds was 270.6 nmol for 0.001, 2.706 μmol for 0.01, 27.06 μmol for 0.1, 270.6 μmol for 1, and 1.082 mmol for 4. The odorant molecule concentration in the gas in the test system was measured by gas chromatography, and the presence of a dependency relationship between the amount of the odorant molecules used for the test and the odorant molecule concentration in the gas in the test system was confirmed.\nUsing the following test compounds (13 kinds), the freezing test shown in Experimental Example 1 was performed. […] For the experiment, 270.6 μmol of odorant compounds were used."}, "[2]": {"system": "mice", "assay": "Acclimation test (freezing time on daily odor exposure for 8 days)", "assay_type": "in vivo, mouse", "protocol": "About 5- to 7-month-old littermate wild-type mice (O-MACS-Cre) were placed in the mouse cages set in a draft (one mouse per cage) to perform habituation for 20 min. Similarly, 20 min habituation was performed the next day. On day 3, odor pods containing odorant molecules were placed in the cages in the draft, and the mice were placed in the cages with odor pods. The behaviors of the mice from day 1 to day 3 were video-recorded and the freezing time was analyzed by FreezeFrame system manufactured by NeuroScience Inc. The time during which the mouse was motionless for 2 seconds or longer was measured as a freezing time, and the time of freezing during the 20 min observation time was shown in %. The freezing time on day 2 was shown as control without odor in the data. As the mice used for experiment, male mice were used to avoid abnormality in the olfactory sense due to the sexual cycle. Each experiment was performed with n=5. The odor pod refers to an apparatus containing filter paper impregnated with odorant and placed in a plastic petri dish with a lid having a hole. In this experiment, 2 MB (2-methylbutyric acid) 45 μL (270.6 μmol) or TMT 35 μL (270.6 μmol) was used as the odorant molecule.\nAcclimation test: By the method of Experimental Example 1, mice (N=8) were forced to smell the test compound (2MT) every day for 8 days, and the freezing time (%) was measured over time. As a control, mice that were forced to learn to feel fear with the smell of anisole by a method including applying an electric shock immediately after smelling anisole (hereinafter to be also referred to as fear learning mice) were used. The aforementioned fear learning mice (N=8) were forced to smell anisole every day for 8 days, and the freezing time (%) was measured over time."}}}
{"smiles": "C1COCO1", "note": "[1,3-dioxolane, reference compound]", "values": [{"measurement": "fear reaction of the comparison odorant", "setting": "[1]; Example 4, odorant used as comparison for the t-test", "value": "does not induce a fear reaction"}]}
{"smiles": "CC1(C)NCCS1", "note": "[2,2-dimethylthiazolidine]", "values": [{"measurement": "Freezing time (%)", "setting": "[1]; Example 4, 270.6 μmol odorant", "value": "29.3 ± 5.2", "unit": "%"}]}
{"smiles": "CC1=NCC(C)S1", "note": "(centres unmarked) [2,5-dimethyl-2-thiazoline]", "values": [{"measurement": "Freezing time (%)", "setting": "[1]; Example 4, 270.6 μmol odorant", "value": "55.9 ± 4.4", "unit": "%"}]}
{"smiles": "Brc1nccs1", "note": "[2-bromothiazole]", "values": [{"measurement": "Freezing time (%)", "setting": "[1]; Example 4, 270.6 μmol odorant", "value": "4.8 ± 1.6", "unit": "%"}]}
{"smiles": "CCc1nccs1", "note": "[2-ethylthiazole]", "values": [{"measurement": "Freezing time (%)", "setting": "[1]; Example 4, 270.6 μmol odorant", "value": "7.3 ± 1.6", "unit": "%"}]}
{"smiles": "CSC1=NCCS1", "note": "[2-methylthio-2-thiazoline]", "values": [{"measurement": "Freezing time (%)", "setting": "[1]; Example 4, 270.6 μmol odorant", "value": "6.2 ± 3.0", "unit": "%"}]}
{"smiles": "CC1=NCCS1", "note": "[2MT, 2-methyl-2-thiazoline]", "values": [{"measurement": "freezing time profile on smelling the odor every day for 8 days", "setting": "[2]; Example 5, FIG. 5, mice N=8, not conditioned", "value": "did not decrease but rather increased"}, {"measurement": "freezing-inducing effect at too high a concentration", "setting": "[1]", "value": "decreased effect"}, {"measurement": "Freezing time (%)", "setting": "[1]; Example 4, 270.6 μmol odorant", "value": "49.9 ± 3.0", "unit": "%"}]}
{"smiles": "CC1CN=CS1", "note": "(centres unmarked) [5-methyl-2-thiazoline]", "values": [{"measurement": "Freezing time (%)", "setting": "[1]; Example 4, 270.6 μmol odorant", "value": "39.6 ± 3.5", "unit": "%"}]}
{"smiles": "CC1CNCS1", "note": "(centres unmarked) [5-methylthiazolidine]", "values": [{"measurement": "Freezing time (%)", "setting": "[1]; Example 4, 270.6 μmol odorant", "value": "4.2 ± 2.7", "unit": "%"}]}
{"smiles": "CC1=NC(C)SC1C", "note": "(centres unmarked) [TMT, 2,4,5-trimethyl-3-thiazoline, reference compound]", "values": [{"measurement": "freezing-inducing effect at too high a concentration", "setting": "[1]", "value": "decreased effect"}, {"measurement": "freezing time compared with 2 MB (putrid odor)", "setting": "[1]; Experimental Example 1, FIG. 1, mice n=5, 270.6 μmol odorant", "value": "longer freezing time"}]}
{"smiles": "COc1ccccc1", "note": "[anisole]", "values": [{"measurement": "freezing time profile on smelling the odor every day", "setting": "[2]; Example 5, FIG. 5, fear learning mice, anisole every day for 8 days, N=8", "value": "decreased with time"}, {"measurement": "freezing time with anisole the next day", "setting": "[2]; Example 5, fear learning mice (electric shock after smelling anisole), N=8", "value": "not less than 50%"}]}
{"smiles": "CCN=C=S", "note": "[ethyl isothiocyanate]", "values": [{"measurement": "Freezing time (%)", "setting": "[1]; Example 4, 270.6 μmol odorant", "value": "14.0 ± 4.5", "unit": "%"}]}
{"smiles": "CC1(C)CS1", "note": "[isobutylene sulfide]", "values": [{"measurement": "Freezing time (%)", "setting": "[1]; Example 4, 270.6 μmol odorant", "value": "4.3 ± 1.9", "unit": "%"}]}
{"smiles": "C1CSCN1", "note": "[thiazolidine]", "values": [{"measurement": "Freezing time (%)", "setting": "[1]; Example 4, 270.6 μmol odorant", "value": "18.2 ± 5.3", "unit": "%"}]}
{"smiles": "C1CSCCN1", "note": "[thiomorpholine]", "values": [{"measurement": "Freezing time (%)", "setting": "[1]; Example 4, 270.6 μmol odorant", "value": "15.9 ± 2.5", "unit": "%"}]}
{"smiles": "c1ccsc1", "note": "[thiophene]", "values": [{"measurement": "Freezing time (%)", "setting": "[1]; Example 4, 270.6 μmol odorant", "value": "2.7 ± 1.6", "unit": "%"}]}
